Test results from patent US20250332212A1, “METHOD FOR TREATING OR PREVENTING ALOPECIA” (Suzhou Mingren Pharmaceutical Biotechnology Co., Ltd., priority 2024, published 2025).
Square brackets hold non-standard residues; d marks the D form. Ends that are not written are not given here. pS = N[C@@H](COP(=O)(O)O)C(=O)O

Assays:
[1] = JP1 permeability experiment (FITC-JP1 applied to depilated skin); conditions: 1% FITC-JP1 solution applied to dorsal depilated area
Description: In this Example, to elucidate the mechanism of JP1 penetrating the skin and acting on the hair follicle, a 14-day AGA modeling was performed according to the model design strategy of Example 1 above. Thereafter, a 1% FITC-JP1 solution was applied to the dorsal depilated area of the mice in a light-avoidance environment. Five time points were set at 0.5, 1, 2, 4 and 8 h for observation. The fresh skin tissue was made into frozen sections, and the penetration pathway of JP1 in the skin tissue and the amount of aggregation in the hair follicles were observed under an inverted fluorescence microscope.
15 C57BL/6J male mice were dorsally depilated after two weeks of continuous TP injection. A 1% FITC-JP1 solution was applied locally to the depilated area of the mice on the 1st day after depilation, no light, in five groups of 0.5 h, 1 h, 2 h, 4 h and 8 h (n=3).
The back skin was removed at the corresponding time points and fixed in 4% paraformaldehyde. After 48 h of fixation, the skin tissue was successively dehydrated in 20% and 30% sucrose solution for 2 days each. After gradient dehydration, sections (20 μm) were made using a frozen microtome. Zeiss inverted fluorescence microscope was used to photograph the fluorescent sections.

[2] = JP1 stability experiment in skin-coating solvent (HPLC); format: physicochemical; conditions: 14 days
Description: This example further explored the stability of JP1 in the skin-coating solvent. In this example, the solvent group and JP1 group were designed, and the content and molecular weight of JP1 in the skin-coating solvent were detected using high performance liquid chromatography on days 1, 3, 7, and 14, respectively, after the solution was formulated for evaluation. The prepared solutions were placed in a refrigerator at 4° C. The details of the experiments are shown in “II. JP1 Stability Experiments” of “Experimental Methods” below.
The stability of JP1 dissolved in a skin-coating solvent was tested at different time points. JP1 was prepared with the skin-coating solvent, and a solvent control group and a 10 mM JP1 group were set up. The prepared solution was stored in a refrigerator at 4° C. The five time points of 0, 1, 3, 7 and 14 days were detected by high performance liquid chromatography (HPLC), and the standard curve was plotted with the peak area as the vertical coordinate and the concentration of JP1 as the horizontal coordinate.

[3] = system: MYC; assay: qPCR of MYC mRNA in skin tissue; format: in vivo, mouse; conditions: P>0.05
Description: (§1) 7.1) Dilute the specific gene amplification primers to 10 µM in ddH2O, prepare the qPCR reaction system according to the instructions in the kit and add them sequentially into a 384-well plate.
(§2) 7.3) Relative mRNA expression levels of genes were calculated by the […] relative quantification method using GAPDH as an internal reference.

[4] = system: p-MEK; assay: Immunoblotting of p-MEK in skin tissue; format: in vivo, mouse; conditions: P<0.05, dose-effect relationship
Description: (§3) 4.1) Protein extraction: 70 mg of skin tissue was placed in a 1.5 mL centrifuge tube, and 500 μL of tissue lysate RIPA containing protease inhibitor and phosphatase inhibitor was added. The tissue was placed on an ice box, pulverized by a tissue grinder, and then ultrasonically crushed to obtain a tissue suspension, which was then placed in a rotary windmill at 4° C. to be lysed for 2 h. The centrifuge was set at 12,000×g, 4° C., centrifuged for 15 min, and the supernatant was collected as the total protein.
(§4) 5.1) Heating of protein samples: the total protein content of each tissue was 50 μg; calculate the volume of a corresponding protein sample, make up the volume with saline to 16 μL, then add 4 μL of 5×SDS sampling buffer, heat at 100° C. for 5 min, and then cool at room temperature and store at −20° C.
(§5) 5.7) Primary antibody incubation: the cut protein bands were placed into the corresponding primary antibody and incubated at 4° C. on a shaker overnight, washed with TBST 3 times for 10 min/time.

[5] = system: β-catenin; assay: β-catenin expression in skin tissue (qPCR, immunoblotting, immunofluorescence); format: in vivo, mouse
Description: as §3, §4, §5, §1, §2
9.5) Primary antibody incubation: the tissue was circled by the histochemical pen, about 50 μL of primary antibody was added dropwise to the tissue, and incubated in a wet box overnight at 4° C., washed 3 times with PBS.

[6] = system: AR, FOXD3, and FOXI1; assay: qPCR of other predicted SP1 transcription factors in skin tissue; format: in vivo, mouse; conditions: P>0.05
Description: Four transcription factors that can bind to the SP1 promoter region were obtained by taking the intersection of the predicted data: E2F1, AR, FOXD3, and FOXI1 (FIG. 13A).
as §1, §2

[7] = system: TP-induced AGA model mice; assay: TP-induced AGA model, Animal model II (JP1 topical, dose-effect); format: in vivo, C57BL/6J male mice; conditions: for hair coverage on the 18th day: twice a day
Description: To prolong the action time of JP1, the design scheme of the animal model in this example adjusted the once-a-day of the first model to twice-a-day administration with an interval of 6 h (FIG. 6A). For details of the experiments, please refer to “Animal model II” of “1. TP-induced AGA model” in “Experimental Methods” below.
The mice used in this study were 5-week-old C57BL/6J male mice (18-20 g), which were purchased from Jiangsu Jicui Pharmachem Biotechnology Co. All the animals used in the experiments were housed in the SPF-level environment of the Medical Laboratory Animal Center of Nanjing Medical University, and the relevant animal experimental operations were approved by the Animal Ethics Committee of Nanjing Medical University. The control group was left untreated, and the other groups were injected with TP subcutaneously on their backs every day. Two weeks later, the hair on the backs of the mice was shaved with an electric razor, covering an area of 2 cm×4 cm, and then the residual hair was removed with a hair removal cream. The subcutaneous injections of TP on the shaved backs of the mice in the AGA model was continued until the end of the experimental period, and the administration of TP in each of the treatment groups was begun on the 1st day of the dehairing process.
In addition to the normal control group (denoted as control) n=20, all mice injected subcutaneously with TP were randomly divided into the following groups (n=20): the model group (denoted as model), the 0.1% JP1, the 0.5% JP1, the 1% JP1 (all administered by topical dermal application), and the 5% minoxidil group.
Mice were weighed every two days during the experiment. Skin color was assessed against skin score charts. The mice were euthanized and treated at the end of the experiment, and skin tissues were taken from the dorsal decorticated area of the mice. Some of the tissues were fixed with 4% paraformaldehyde solution and then paraffin sections were made for H&E or immunofluorescence staining, etc., and some of the tissues were stored in the refrigerator at −80° C. for relevant molecular expression assays (qRT-PCR, Western Blot, IP, etc.).
8.1) Sampling and fixation: After the experiment, skin tissue was taken from the depilated area on the back of the mouse and placed in a 10 mL EP tube. 4% paraformaldehyde was added to the EP tube, and all tissues were immersed to denature and coagulate the proteins of the skin tissue. The original morphology and structure of the cells were maintained.
8.6) H&E staining: the sections pretreated in distilled water were put into aqueous hematoxylin solution for a few minutes for staining. The color was separated in acid water and ammonia for a few seconds each. After rinsing in running water for 1 h, the sections were placed in distilled water for a few moments. The sections were dehydrated in 70% and 90% alcohol for 10 min each, and stained in alcoholic eosin stain for 2-3 min.

[8] = system: p-ERK; assay: Immunoblotting of p-ERK in skin tissue; format: in vivo, mouse; conditions: P<0.05, dose-effect relationship
Description: as §3, §4, §5

For “FPGSDRF-RGD (FPG[pS]DRFRGD) [JP1, amino acid S is phosphorylated; JWA peptide]”, the “fluorescence brightness at 8 h” value [1] was “obviously weakened”, the “distribution of the drug in skin at 0.5 h” value ([1]; fluorescence) was “basically covered the surface of the skin” and the “JP1 degradation in skin-coating solvent” value ([2]; 10 mM JP1, 4° C.) was “no JP1 degradation was detected”. For the same substance, the “peak area of the substance produced by degradation” value ([2]; skin-coating solvent, 4° C.) was “less than 0.5 mAU”, the “percentage of the main peak area” value ([2]; skin-coating solvent, 4° C.) was about 100% and the “MYC mRNA level, difference between groups” value [3] was “not statistically significant”. For the same substance, the p-MEK expression level [4] was “elevated”, the β-catenin immunohistofluorescence staining [5] was “trend consistent with the results of protein immunoblotting experiments” and the β-catenin protein expression ([5]; protein immunoblotting, dose-effect relationship for JP1) was “increased”. For the same substance, the “β-catenin mRNA expression vs model group” value ([5]; qPCR) was “increased”, the “mRNA expression of other molecules (predicted SP1 transcription factors)” value [6] was “did not change significantly” and the “hair coverage on the 18th day” value ([7]; 0.1% JP1 topical) was “lowest”. The “hair bulb size on day 11 among groups” value ([7]; 1% JP1 group) was “largest”, the “hair coverage on the 18th day” value ([7]; 1% JP1 topical) was “highest hair coverage” and the “hair follicle phase on day 11” value ([7]; H&E longitudinal, model group just entered the anagen phase) was “mid-growth phase”. The “total number of hair follicles vs model group” value ([7]; H&E transverse sections, day 11) was “increased significantly and dose-dependently”, the “effect on growth cycle of hair follicles” value ([7]; JP1 or minoxidil intervention) was “accelerate the entry of hair follicles into the anagen phase and shorten the resting phase” and the “diameter of the hair bulb vs model group” value ([7]; day 11) was “significantly larger than that of the model group”. The “difference between body weights of the groups” value ([7]; during the experiment) was “no statistically significant difference”, the “hair follicle phase on day 32” value ([7]; medium and high dose JP1 group, model group entered the resting phase) was “entered the anagen phase again” and the “dose-effect relationship of AGA hair follicle regeneration” value ([7]; skin-coating 0.1%, 0.5%, 1% JP1) was “significant dose-effect relationship”. For the same substance, the “skin color on the 11th day” value ([7]; topical, model group appeared orange) was “changed to gray” and the p-ERK expression level [8] was “elevated”.
